Reference: US5817670A, “Naphthyridine derivatives and pharmaceutical compositions thereof” (Yamanouchi Pharmaceutical Co., Ltd., priority 1994, dated 1998)
Structures can show the parent of a compound that is named as a salt.

Tests used:
[1] = molecular target: type I phosphodiesterase; assay: Phosphodiesterase inhibition activity (in vitro), Type I; type: biochemical, rat
Description: (§1) (A) In order to evaluate selectivity of the compounds of the present invention for type IV phosphodiesterase, types I, II, III and V phosphodiesterase isozymes were purified in the following manner.
(§2) 1) Solutions containing various phosphodiesterase (types I, II and III) isozymes were purified from rat heart muscle cells in the following manner. Under ether anesthesia, Wistar rat was subjected to thoracotomy to excise the heart. After removing blood by perfusion with physiological saline supplemented with heparin (1 unit/ml), the heart was finely chopped with scissors. This was suspended in buffer A (20 mM Bis-Tris, 5 mM dithioerythritol, 2 mM EGTA and 50 mM sodium acetate, pH 6.5) containing a protease inhibitor (50 μM phenyl-methyl-sulfonyl-fluoride, 5 μM pepstatin A, 40 μM leupeptin, 20 μM aprotinin or 2 mM benzamidine) and then the cells were disrupted using polytron and sonicator and subjected to ultracentrifugation (4° C., 100,000×g, 60 minutes) to give a soluble fraction.
(§3) 2) Solutions containing various phosphodiesterase isozymes were obtained from the thus obtained soluble fraction in the following manner. The thus, obtained soluble fraction was applied to a column of 1.6×10.0 cm packed with Q Sepharose which had been equilibrated with buffer A. Next, said column was washed with 300 ml of buffer A to remove non-absorbed protein. Phosphodiesterase was eluted with 200 ml of buffer A having 0.05 to 1.25M linear gradient of sodium acetate to collect about 40 fractions each containing 5.0 ml eluate. Each fraction was checked for cAMP- and cGMP-metabolizing phosphodiesterase activities. Of these fractions, a fraction having only cAMP-metabolizing activity and showing disappearance of the metabolizing activity by 0.1 μM cilostamide (a type III phosphodiesterase selective inhibitor) was used as the type III phosphodiesterase. […] These fractions were separately collected to be used as phosphodiesterase (types I, II and III) stock solutions for the examination of selectivity. p1 3) A solution containing type V phosphodiesterase was prepared from peripheral blood of a healthy person in the following manner. A 200 ml portion of physiological saline supplemented with dextran (3%) was added to 500 ml of heparinized peripheral blood and incubated at 37° C. for 40 minutes to effect precipitation of erythrocytes. The supernatant fluid after precipitation of erythrocytes was recovered and centrifuged once, and the resulting precipitate was suspended in buffer B (140 mM NaCl, 5 mM KCl, 5 mm glucose and 10 mM HEPES, pH 7.4), overlaid on a solution for density gradient centrifugation use (Ficoll solution) and then centrifuged at room temperature for 40 minutes at 450×g, thereby separating monocyte fraction and granulocyte fraction. The granulocyte fraction was washed once with buffer C (140 mM NaCl, 5 mM KCl, 1 mM CaCl2, 1 mM MgCl2, 5 mM glucose and 10 mM HEPES, pH 7.4) and suspended in buffer D (20 mM Bis-Tris, 5 mM dithioerythritol, 2 mM EGTA and 50 mM sodium acetate, pH 6.5) containing a protease inhibitor (40 μM leupeptin, 5 μM pepstatin A, 20 μM aprotinin, 50 μM phenyl-methyl-sulfonyl-fluoride or 2 mM benzamidine) and then the cells were disrupted using polytron and sonicator and subjected to ultracentrifugation (4° C., 100,000×g, 60 minutes) to give a soluble fraction.
(§4) (B) Inhibitory activities were measured using the thus obtained stock solutions of various phosphodiesterase isozymes.
(§5) 1) A predetermined amount of each compound to be tested was subjected to 10 minutes of reaction at 30° C. in a reaction mixture containing 40 mM Tris-HCl (pH 8.0), 5 mM MgCl2, 4 mM 2-mercaptoethanol, 10 μM rolipram (a type IV phosphodiesterase selective inhibitor), 1 μM cAMP, 10 nM ^3 H-cAMP (in the case of type V phosphodiesterase, 1 μM cAMP and 10 nM ^3 H-cAMP are replaced by 1 μM cGMP and 100 nM ^3 H-cGMP) and each of the isozyme stock solutions. […]

[2] = molecular target: T1, type II phosphodiesterase (Rattus norvegicus, UniProt Q01062); assay: Phosphodiesterase inhibition activity (in vitro), Type II; type: biochemical; details: Type II phosphodiesterase column
T1 construct: purified from rat heart muscle cells; from tissue; host or cells: rat heart, soluble fraction, Q Sepharose
T1 sequence (Q01062 1-928): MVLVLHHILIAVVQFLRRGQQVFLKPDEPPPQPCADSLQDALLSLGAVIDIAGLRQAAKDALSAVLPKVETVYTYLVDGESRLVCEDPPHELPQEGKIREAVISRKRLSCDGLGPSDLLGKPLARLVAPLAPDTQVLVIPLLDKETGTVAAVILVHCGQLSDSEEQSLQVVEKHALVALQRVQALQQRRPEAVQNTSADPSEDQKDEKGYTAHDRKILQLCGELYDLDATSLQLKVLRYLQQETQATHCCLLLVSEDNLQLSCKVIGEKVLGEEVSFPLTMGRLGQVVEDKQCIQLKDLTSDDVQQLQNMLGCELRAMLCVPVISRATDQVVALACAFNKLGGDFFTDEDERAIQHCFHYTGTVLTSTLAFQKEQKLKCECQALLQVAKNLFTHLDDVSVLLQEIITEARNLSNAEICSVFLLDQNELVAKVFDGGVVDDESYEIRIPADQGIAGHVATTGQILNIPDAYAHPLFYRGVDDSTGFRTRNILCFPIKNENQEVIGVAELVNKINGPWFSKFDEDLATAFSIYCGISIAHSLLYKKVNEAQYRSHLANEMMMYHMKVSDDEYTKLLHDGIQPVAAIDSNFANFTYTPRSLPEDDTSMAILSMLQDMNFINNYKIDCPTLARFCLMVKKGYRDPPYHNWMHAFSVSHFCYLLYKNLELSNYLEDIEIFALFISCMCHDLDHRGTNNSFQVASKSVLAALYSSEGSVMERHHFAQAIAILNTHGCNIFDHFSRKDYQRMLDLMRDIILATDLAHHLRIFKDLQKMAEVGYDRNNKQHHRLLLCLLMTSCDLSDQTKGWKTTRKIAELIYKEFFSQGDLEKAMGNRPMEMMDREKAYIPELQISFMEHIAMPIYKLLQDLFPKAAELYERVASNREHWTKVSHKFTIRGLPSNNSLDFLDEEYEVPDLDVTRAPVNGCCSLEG
Description: as §1, §2, §3, §4, §5

[3] = molecular target: type III phosphodiesterase; assay: Phosphodiesterase inhibition activity (in vitro), Type III; type: biochemical, rat
Description: as §1, §2, §3, §4, §5

Row | IC50 [1] [µM] | IC50 [2] [µM] | IC50 [3] [µM] | SMILES
1 | 0.0338 | 20.8 | 50.3 | CCn1c(=O)cc(-c2cccc(Cl)c2)c2cccnc21 [Example 15, 4-(3-Chlorophenyl)-1-ethyl-1,8-naphthyridin-2(1H)-one]
2 | 0.0419 | 51.8 | 21.5 | Cc1cc(C)c2c(-c3cccc(Cl)c3)cc(=O)n(C)c2n1 [Example 24, 4-(3-chlorophenyl)-1,5,7-trimethyl-1,8-naphthyridin-2(1H)-one]
3 | 0.0234 | 30 | 56.2 | CCc1cc(C)c2c(-c3ccccc3)cc(=O)n(C)c2n1 [Example 26, 7-Ethyl-1,5-dimethyl-4-phenyl-1,8-naphthyridin-2(1H)-one]
4 | 0.0213 | 25.6 | 15.5 | CCc1cc(C)c2c(-c3cccc(Cl)c3)cc(=O)n(C)c2n1 [Example 27, 4-(3-Chlorophenyl)-7-ethyl-1,5-dimethyl-1,8-naphthyridin-2(1H)-one]
5 | 0.0116 | 15.5 | 14.3 | CCn1c(=O)cc(-c2cccc(Cl)c2)c2c(C)cc(C)nc21 [Example 29, 4-(3-Chlorophenyl)-1-ethyl-5,7-dimethyl-1,8-naphthyridin-2(1H)-one]
6 | 0.0099 | 10.5 | 10.9 | CCn1c(=O)cc(-c2cccc(Br)c2)c2c(C)cc(C)nc21 [Example 30, 4-(3-Bromophenyl)-1-ethyl-5,7-dimethyl-1,8-naphthyridin-2(1H)-one]
7 | 0.0043 | > 30 | > 30 | CCc1cc(C)c2c(-c3cccc(Br)c3)cc(=O)n(CC)c2n1 [Example 31, 4-(3-bromophenyl)-1,7-diethyl-5-methyl-1,8-naphthyridin-2(1H)-one]
8 | 0.0143 | 35.4 | 17.7 | CCCn1c(=O)cc(-c2cccc(Br)c2)c2c(C)cc(CC)nc21 [Example 33, 4-(3-Bromophenyl)-7-ethyl-5-methyl-1-propyl-1,8-naphthyridin-2(1H)-one]
9 | 0.0242 | 22.3 | 34.4 | CCc1cc(C)c2c(-c3cccc(Cl)c3)cc(=O)n(C3CC3)c2n1 [Example 35, 4-(3-Chlorophenyl)-1-cyclopropyl-7-ethyl-5-methyl-1,8-naphthyridin-2(1H)-on]
10 | 0.0124 | 26.1 | > 30 | CCn1c(=O)cc(-c2ccccc2)c2c(C)cc(C)nc21 [Example 38, 1-Ethyl-5,7-dimethyl-4-phenyl-1,8-naphthyridin-2(1H)-one]
11 | 0.0129 | 20.5 | 32.3 | CCc1cc(C)c2c(-c3ccccc3)cc(=O)n(CC)c2n1 [Example 40, 1,7-Diethyl-5-methyl-4-phenyl-1,8-naphthyridin-2(1H)-one]
12 | 0.016 | > 30 | > 30 | CCc1cc(C)c2c(-c3cccc(Cl)c3)cc(=S)n(C)c2n1 [Example 43, 4-(3-chlorophenyl)-7-ethyl-1,5-dimethyl-1,8-naphthyridine-2(1H)-thione]
13 | 0.0389 | > 30 | > 30 | CCn1c(=O)cc(C2CCCCC2)c2cccnc21 [Example 46, 4-cyclohexyl-1-ethyl-1,8-naphthyridin-2(1H)-one 0.45 hydrochloride 0.25 hydrate]
14 | 0.0337 | 22.8 | 27.3 | CCc1cc(C)c2c(C3CCCCC3)cc(=O)n(CC)c2n1 [Example 49, 4-cyclohexyl-1,7-diethyl-5-methyl-1,8-naphthyridin-2(1H)-one]
